Patent publication US10328062B2, “Biomarkers and use of MET inhibitor for treatment of cancer” (AMGEN, INC., priority 2014, dated 2019)

What was measured:
[1] = system: SNU-620; assay: 72 hour cancer cell line viability assay (CellTiter-Glo); format: cell-based, Human
Experimental: (§1) Human cancer cell lines were purchased from ATCC, JCRB, Sigma Aldrich or DSMZ. All cell lines were propagated in growth media per the suppliers' recommendation and maintained in 5% CO2 and 37° C.
(§2) Cancer cell line viability assays were carried out using the CellTiter-Glo Luminescent Cell Viability Assay from Promega (Madison, Wis.). Optimal cell seeding densities were determined using time lapse imaging to maximize signal window and ensure cells were not contact growth inhibited at the 72 hour time point. Cells were seeded in 96 well plates in complete growth media and allowed to adhere to the bottom of the plate by incubation at 37° C. and 5% CO2 overnight. […] Plates were incubated at 37° C. and 5% CO2 for 72 hours. Treated plates were then allowed to equilibrate to room temperature along with, CellTiter-Glo substrate and buffer solution prior to use in the viability assay. CellTiter-Glo substrate vials were reconstituted in 10 mL of buffer solution and added to assay plates in 100 μL/well volumes. Plates were shaken for 2 minutes at 700 rotations per minute with an orbit diameter of 3 mm followed by room temperature incubation for 10 minutes. Plates were then read using an Envision plate reader on luminescent setting.
(§3) To calculate growth inhibition effects (0-200% scale), time zero vehicle treated wells (V0), were read at the time of compound addition for each cell line.
(§4) Threshold for high vs low MET copy number was set at aCGH log 2 ratio of 2.5. Focal nature of MET copy number increase was defined qualitatively using tiled aCGH results for chromosome 7.
(§5) Percent growth inhibition is reported on a 0-200% scale where 0% is equivalent to no effect (time 72 hour control), 100% is equivalent to stasis (time 0 hour control) and 200% is equivalent to complete cell death.

[2] = system: SNU-5; assay: as above; format: cell-based, Human
Experimental: as §1, §2, §3, §4, §5

[3] = Body weight and tolerability in HCC PDX models; format: in vivo; conditions: LI0612 and LI1078 models
Experimental: Two HCC patient-derived tumor xenograft (PDX) mouse models were established by directly inoculated subcutaneously with primary human HCC tumor tissues into female BABL/c nude mice. Briefly, each mouse (8-10 weeks old) was purchased from Shanghai Laboratory Animal Center (SLAC). All the animal experiments were performed according to the guidelines approved by the Institutional Animal Care and Use Committee (IACUC). The treatment was started when the average size reached about 180 mm^3. Mice were allocated randomly into four experiment groups (12 animals per group) according to their tumor sizes. […]. The tumor size and body weight were measured twice weekly. The length, width, and height of tumors were measured with a caliper. The tumor volume was calculated as L×W×H and expressed in mm^3. The percentage of tumor growth inhibition (% TGI=100%−(VTi−VT0)/(VCi−VC0)*100%) was calculated for evaluating anti-tumor efficacy. VTi, mean tumor size in treatment group on the Day i; VT0, mean tumor volume in treatment group on Day 0; VCi, mean tumor size in vehicle group on Day i; VC0, mean tumor size in vehicle group on Day 0.
Mice with subcutaneously established tumor tissues were randomly grouped and treated with vehicle or Compound Mat doses of 3, 10 and 30 mg/kg once daily by oral administration for 14 days. […]. […]. […]

[4] = Phase 1 Study 20101132 safety; format: in vivo
Experimental: Eligible subjects have disease that is refractory or resistant to standard treatments or disease for which no standard therapy exists.
Safety is assessed according to Common Terminology Criteria for Adverse Events (CTCAE) v4.0 criteria and the DLT (dose limiting toxicity) window is 28 days. Dose escalation is proceeding with a modified 3+3+3 design, which defines the MTD (maximum tolerated dose) to have been exceeded when ≥3 subjects in a cohort experience a DLT.
Enrollment is proceeding as follows: if no DLT is observed within the first 28 days in the initial 3 to 4 subjects of a cohort, dose escalation to the next higher dose level cohort will occur. If 1 DLT is observed, 3 additional subjects will be enrolled at the same dose level for a total of at least 6 subjects. If no further DLT(s) are observed, escalation to the next higher dose level cohort will occur. If a second DLT is observed, 3 additional subjects will be enrolled at the same dose level for a total of at least 9 subjects. If no further DLTs are observed, dose escalation to the next higher dose level will occur. If ≥3 DLTs are observed in the first 3 to 9 subjects, then enrolment stops at the third DLT observation and enrolment into a cohort at a lower dose level will be considered.
Dose escalation consists of up to 8 cohorts of 3 to 9 evaluable subjects each. Initially, up to 4 subjects may enroll into a cohort. The planned cohort dose levels are as follows: QD cohorts, cohort 1, 25 mg; cohort 2, 50 mg; cohort 3, 100 mg; cohort 3A, 150 mg; cohort 4, 200 mg; cohort 5, 300 mg; cohort 6, 400 mg; and cohort 7, 500 mg; BID cohorts, cohort B1 100 mg, cohort B2 150 mg, cohort B3 200 mg. The MTD is defined as the highest dose level with an observed incidence of DLT in <33% of subjects enrolled in a cohort. At least 6 subjects will be treated at the MTD. An expansion cohort of up to 20 subjects at the MTD (determined in the dose escalation portion) will be considered to obtain further safety, PK, and efficacy data.
The 300-mg dose was identified as an MTD for QD dosing schedule and the recommended phase 2 dose. Twice daily dose escalation is currently ongoing and the MTD has not yet been determined as of the data cutoff date. As of the data cutoff date of 23 Jul. 2014, tumor-response data were available from 84 subjects in Study 20101132, including data on 62 subjects with >1 post-screening Response Evaluation Criteria in Solid Tumors (RECIST) tumor measurement by central read (22 subjects had screening data only). […] Of these 7 responders, 6 had gastric, gastroesophageal junction (GEJ) or esophageal adenocarcinoma with evidence of MET amplification identified by fluorescence in-situ hybridization assay performed by an experienced local laboratory per regulatory guideline.

COCCOc1cnc2ccn([C@H](C)c3nnc4c(F)cc(-c5cnn(C)c5)cn34)c(=O)c2c1 [Compound M, 6-{(1R)-1-[8-fluoro-6-(1-methyl-1H-pyrazol-4-yl)[1,2,4]triazolo[4,3-a]pyridin-3-yl]ethyl}-3-(2-methoxyethoxy)-1,6-naphthyridin-5(6H)-one]
IC50 ([1]; Homo sapiens, SNU620, 72 h): 14 nM | viability response type ([1]; SNU-620, 72 hour, 0-200% growth inhibition scale): evidence of cell death | IC50 ([2]; Homo sapiens, SNU-5, 72 h): 3 nM | viability response type ([2]; SNU-5, 72 hour, 0-200% growth inhibition scale): evidence of cell death | body weight ([3]; 3, 10, 30 mg/kg once daily, 14 days): no significant body weight changed or lost | tolerability ([3]; all dose levels): well tolerated | MTD and recommended phase 2 dose ([4]; QD dosing schedule): 300 mg | adverse event: anemia ([4]; human, in vivo): 21.1% | adverse event: aspartate aminotransferase (AST) increased ([4]; human, in vivo): 10% | adverse event: back pain ([4]; human, in vivo): 15.6% | adverse event: constipation ([4]; human, in vivo): 23.3% | adverse event: decreased appetite ([4]; human, in vivo): 16.7% | adverse event: diarrhea ([4]; human, in vivo): 15.6% | adverse event: dizziness ([4]; human, in vivo): 10% | adverse event: dry skin ([4]; human, in vivo): 12.2% | adverse event: dyspnea ([4]; human, in vivo): 15.6% | adverse event: fatigue ([4]; human, in vivo): 40% | adverse event: headache ([4]; human, in vivo): 64.4% | adverse event: hypoalbuminemia ([4]; human, in vivo): 20% | adverse event: myalgia ([4]; human, in vivo): 12.2% | adverse event: nausea ([4]; human, in vivo): 43.3% | adverse event: peripheral edema ([4]; human, in vivo): 18.9% | adverse event: rash ([4]; human, in vivo): 11.1% | adverse event: vomiting ([4]; human, in vivo): 26.7%
